Biological target: Chymotrypsinogen A (Bos taurus) (UniProt P00766)
Experiment: Compound was evaluated for its inhibitory activity against bovine pancreatic alpha-chymotrypsin

Cc1ccc(N2C(=O)N(c3ccc(C)cc3)C2=O)cc1 [1,3-Di-p-tolyl-[1,3]diazetidine-2,4-dione]
IC50: 2.4 nM

From BindingDB's records for doi:10.1016/s0960-894x(01)00264-5 (Shionogi, 2001)
